# Experimental data reported in patent US20260191196A1, “COMPOSITIONS AND METHODS FOR IMPROVING SOIL MICROBIAL POPULATIONS” (SYNGENTA CROP PROTECTION AG, priority 2022, published 2026).
# Legend:
# soil bacterial community = test: Plant associated soil microbiome: bacterial community by 16S rRNA gene amplicon sequencing; type: in vivo, tomato plants
# Experimental: (§1) To detect microbial community modifications in the soil microbiome associated with the cyclobutrifluram treatment against root knot nematodes, PCR amplification and successive high-throughput sequencing of bacterial and fungal taxonomical marker genes (the small-subunit ribosomal RNA gene (16S) and the ribosomal internal transcribed spacers (ITS) respectively) were performed on plant-associated soil samples.
# Bacterial ASVs were detected by 16SrRNA gene amplicon sequencing with taxonomy assignment at ASV level. The relative abundance in Control and Cyclobutrifluram treated samples and, when statistically significative (Deseq2, p=0.1), the relative abundance variation is reported in Table 1a, reporting bacterial ASVs detected by 16S rRNA gene amplicon sequencing with taxonomy assignment at ASV level. Here is reported the relative abundance in Control and Cyclobutrifluram treated samples and, when statistically significative (Deseq2, p=0.1), the relative abundance variation. Shown are the bacteria with an abundance of above 0.01%.
# [1] = system: beneficial bacterial species; test: Potato field trial: beneficial bacteria in soil (16S sequencing, differential abundance); type: in vivo, potato (Solanum tuberculosum L.)
# Experimental: (§2) In this experiment, assuming that biodiversity can be measured by the taxonomic richness and abundance of each taxon, the differences between treatments are determined and their effect on populations and beneficial species over time is verified. This leads to testing two hypotheses. Firstly, there is an impact of cyclobutrifluram applications on microbial diversity. Secondly, the use of cyclobutrifluram improves beneficial microbial diversity over time. These hypotheses were tested in two potato farms in the USA.
# (§3) The experiment was carried out in two potato (Solanum tuberculosum L.) fields located in two test locations in Louisiana, USA, described as locations A and B in Table 2. In each experimental field, three products were tested in an area of 10 m^2 (Table 3) and three replicates per product were established by complete block randomized. To evaluate the effects on the microbiome a “Check” plot (untreated) was established. In addition, fluopyram was employed as a comparative example. Fluopyram is a widely used fungicide and nematicide, and represents the industry standard herein.
# (§4) To analyse the microbial biodiversity, three soil samples were taken per treatment and each sample consisted of soil collected from three different points within the plots. In this way, the effect of soil variability was minimized, since there were nine samples per treatment. […]
# as §1, with “As set out above, to” for “To”, “treatment,” for “treatment against root knot nematodes,”, “samples. An exploratory data analysis was conducted to describe the microbial biodiversity and the behaviour of the percentage of the abundance of species under the evaluated factors. […]” for “samples.”
# [2] = system: bacteria (16S) and fungi (ITS) communities; test: Potato field trial: soil microbiome community and biodiversity; type: in vivo, potato (Solanum tuberculosum L.); details: locations A and B, T0-T3
# Experimental: as §2, §3, §4
# as §1, with “As set out above, to” for “To”, “treatment,” for “treatment against root knot nematodes,”, “samples. An exploratory data analysis was conducted to describe the microbial biodiversity and the behaviour of the percentage of the abundance of species under the evaluated factors. […]” for “samples.”
# [3] = Cyclobutrifluram treated plant-associated soil
smiles,measurement,setting,value
"O=C(N[C@@H]1CC[C@@H]1c1ccc(Cl)cc1Cl)c1cccnc1C(F)(F)F (racemic) [Cyclobutrifluram, cyclobutrifluram]","relative abundance variation vs Control, Acidobacteria-6 (ASV, Class)","soil bacterial community; 1st Acidobacteria-6 ASV (r9), Deseq2, p=0.1",+0.050%
same,"relative abundance variation vs Control, Acidobacteria-6 (ASV, Class)","soil bacterial community; 2nd Acidobacteria-6 ASV (r16), Deseq2, p=0.1",+0.051%
same,"relative abundance variation vs Control, Acidobacteria-6 (ASV, Class)","soil bacterial community; 3rd Acidobacteria-6 ASV (r18), Deseq2, p=0.1",+0.027%
same,"relative abundance variation vs Control, Acidobacteria-6 (ASV, Class)","soil bacterial community; 4th Acidobacteria-6 ASV (r19), Deseq2, p=0.1",+0.028%
same,"relative abundance variation vs Control, Acidobacteria-6 (ASV, Class)","soil bacterial community; 5th Acidobacteria-6 ASV (r22), Deseq2, p=0.1",+0.071%
same,"relative abundance variation vs Control, Acidobacteria-6 (ASV, Class)","soil bacterial community; 6th Acidobacteria-6 ASV (r24), Deseq2, p=0.1",+0.030%
same,modifications in the bacterial diversity,soil bacterial community; 16S rRNA gene amplicon sequencing,no modifications
same,"Relative abundance, Gaiella (ASV, Genus)",soil bacterial community; [3],0.065%
same,"Relative abundance, Gemmatimonadetes (ASV, Class)",soil bacterial community; [3],0.071%
same,"Relative abundance, Microlunatus (ASV, Genus)",soil bacterial community; [3],0.032%
same,"Relative abundance, Myxococcales (ASV, Order)",soil bacterial community; [3],0.033%
same,"Relative abundance, PK29 (ASV, Order)",soil bacterial community; [3],0.021%
same,"Relative abundance, Planctomyces (ASV, Genus)",soil bacterial community; [3],0.016%
same,"Relative abundance, Rhizobiales (ASV, Order)",soil bacterial community; [3],0.025%
same,"Relative abundance, Streptosporangiaceae (ASV, Family)",soil bacterial community; [3],0.020%
same,"Relative abundance, Acidobacteria-6 (ASV, Class)","soil bacterial community; Cyclobutrifluram treated plant-associated soil, 1st Acidobacteria-6 ASV (r9)",0.050%
same,"Relative abundance, Acidobacteria-6 (ASV, Class)","soil bacterial community; Cyclobutrifluram treated plant-associated soil, 2nd Acidobacteria-6 ASV (r16)",0.051%
same,"Relative abundance, Acidobacteria-6 (ASV, Class)","soil bacterial community; Cyclobutrifluram treated plant-associated soil, 3rd Acidobacteria-6 ASV (r18)",0.027%
same,"Relative abundance, Acidobacteria-6 (ASV, Class)","soil bacterial community; Cyclobutrifluram treated plant-associated soil, 4th Acidobacteria-6 ASV (r19)",0.028%
same,"Relative abundance, Acidobacteria-6 (ASV, Class)","soil bacterial community; Cyclobutrifluram treated plant-associated soil, 5th Acidobacteria-6 ASV (r22)",0.084%
same,"Relative abundance, Acidobacteria-6 (ASV, Class)","soil bacterial community; Cyclobutrifluram treated plant-associated soil, 6th Acidobacteria-6 ASV (r24)",0.030%
same,"relative abundance variation vs Control, Gaiella (ASV, Genus)","soil bacterial community; Deseq2, p=0.1",+0.065%
same,"relative abundance variation vs Control, Gemmatimonadetes (ASV, Class)","soil bacterial community; Deseq2, p=0.1",+0.071%
same,"relative abundance variation vs Control, Microlunatus (ASV, Genus)","soil bacterial community; Deseq2, p=0.1",+0.032%
same,"relative abundance variation vs Control, Myxococcales (ASV, Order)","soil bacterial community; Deseq2, p=0.1",+0.033%
same,"relative abundance variation vs Control, PK29 (ASV, Order)","soil bacterial community; Deseq2, p=0.1",+0.021%
same,"relative abundance variation vs Control, Planctomyces (ASV, Genus)","soil bacterial community; Deseq2, p=0.1",+0.016%
same,"relative abundance variation vs Control, Rhizobiales (ASV, Order)","soil bacterial community; Deseq2, p=0.1",+0.025%
same,"relative abundance variation vs Control, Streptosporangiaceae (ASV, Family)","soil bacterial community; Deseq2, p=0.1",+0.020%
same,modifications in the bacterial community at genus level,"soil bacterial community; differential abundance analysis, Cyclobutrifluram treatment",no significant modifications
same,relative abundance of the 14 ASVs found to be significantly changing,soil bacterial community; following cyclobutrifluram treatment,< 0.1%
same,abundance of Bacillus halmapalus and B. cereus,[1]; T2 (60 days after treatment),increased significantly
same,"Sphingomonas species (S. sediminicola, S. japsi and S. daechungensis) abundance","[1]; location A in T3 (120 days after application), location B in T2 (60 days after application)",tend to increase significantly
same,Pseudomonas putida abundance,"[1]; location A, 200 and 250 gai/ha",significant increase
same,changes into the soil microbiome community,[2],did not induce negative changes
